Test results published in patent publication US6150414A, “Compositions and methods for treating viral infections” (priority 1992, dated 2000).
Values joined by “and” are separate entries in the source; they are usually repeats but may differ in a detail not shown here. Equal values may be shown once.

Tests used:
Friend Leukemia Virus [1] = assay: Inhibition of Friend Leukemia Virus-induced splenomegaly in mice, compounds intraperitoneally 24 hours after virus (Example 1(a)); format: in vivo, BALB/c mice; details: dose 150 mg (so in the source); Table III second set
In short: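 BALB/c mice inoculated i.v. with 10^6 FFU Friend virus (spleen homogenate); compounds given i.p. 24 h later at 100 μg once, or 50, 100, 200 μg or 2×100 μg (second dose 24–48 h after first), two mice per group. Spleens weighed at day 10; percent inhibition from average spleen weights relative to negative and positive controls.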

[2] = target: T1, Radiation Leukemia Virus reverse transcriptase (Radiation murine leukemia virus, UniProt P11227); assay: Radiation Leukemia Virus reverse transcriptase assay, supernatants from infected AQR cells (Examples 4 and 9); format: biochemical; details: Table VI; for CPM: replicate, listed as Hy
T1 construct: the reverse transcriptase of Radiation Leukemia Virus; endogenous in cells
In short: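 Supernatants from AQR cells chronically infected with RadLV were incubated 30 min on ice with the test compound (hypericin, protohypericin or HHA). Virus was pelleted at 100,000×g for 1 h at 4 °C, and the pellet was assayed for reverse transcriptase activity.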

retroviruses (virions) = assay: Direct inactivation of retroviruses (virions) in vitro (Example 10); format: biochemical, Radiation Leukemia Virus; details: Table IX
In short: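 RadLV-containing supernatants from chronically infected B10.T(6R) cells incubated 30 min on ice with hypericin or protohypericin. Virions then pelleted at 100,000×g for 1 h at 4° C and assayed for reverse transcriptase activity. EC50 is the micromolar concentration inhibiting 50% of virus.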

[3] = system: virus budding in virus-producing cells; assay: In vitro inhibition of virus budding: production of defective budded virions (Example 10); format: cell-based; details: in vitro; Table IX; read-out: EC50 for production of defective budded virions
Text: (§1) The results presented above in Table IX are presented as EC50 concentrations. These are the effective concentrations which inhibit 50% of the viruses in micromolar concentrations.

Friend Leukemia Virus [4] = assay: In vivo inhibition of Friend Leukemia Virus splenomegaly, intravenous 1-2 hours post infection (Example 10); design: species or system mice; details: Mus musculus, read-out: EC50 for FV-induced splenomegaly
Experimental: (3) In vivo inhibition of Friend Leukemia Virus Splenomegaly performed as described in Example 1 above except that the compounds were administered intravenously 1-2 hours post infection.
as §1

[5] = Antiviral activity of hypericin as a function of frequency of treatment in mouse studies; format: in vivo
Text: The present inventors have also discovered that the antiviral activity of hypericin is a function of the frequency of treatment. […] While the foregoing observations in mice may not be applicable to other mammals or humans, those skilled in the art will appreciate that the frequency of treatment is subject to optimization, which can be determined by routine experimentation according to methods well known in the art, e.g. by establishing a matrix of dosage and frequency and assigning a group of experimental subjects to each point of the matrix. Design of this experiment should preferably also take into account the tissue accumulation properties of PAC compounds.

retroviruses = assay: Comparison over two in vitro and one in vivo biological assays (Example 10); details: Example 10
In short: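 In vitro direct inactivation of retroviruses was tested alongside in vivo inhibition of Friend Leukemia Virus splenomegaly in mice. For the in vivo test, compounds were given intravenously 1-2 hours post infection.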

With `Cc1cc(O)c2c(=O)c3c(O)cc(O)c4c5c(O)cc(O)c6c(=O)c7c(O)cc(C)c8c1c2c(c34)c(c78)c65` [hypericin, Hypericin] as the compound, how does the “Average Spleen Weight” value (Friend Leukemia Virus [1]) read?
The value was 0.7707.

And the “Average CPM” value ([2]; 0.4 micrograms)?
The value was 2,489 CPM.

And the “Average percent inhibition” value ([2]; 0.4 micrograms)?
Its value is 99.4%.

What about the CPM ([2]; 0.4 micrograms) of the same compound?
Its CPM is 1,700 CPM and 3,278 CPM.

And the “Average CPM” value ([2]; 2 micrograms)?
The value was 9,986 CPM.

And the “Average percent inhibition” value ([2]; 2 micrograms)?
Its value is 97.8%.

And the CPM ([2]; 2 micrograms)?
Its CPM is 14,474 CPM and 5,498 CPM.

And the “Average CPM” value ([2]; 10 micrograms)?
Its value is 11,588 CPM.

What about the “Average percent inhibition” value ([2]; 10 micrograms) of the same compound?
Its value is 97.4%.

And the CPM ([2]; 10 micrograms)?
The CPM was 9,288 CPM and 13,888 CPM.

And the “Average CPM” value ([2]; 50 micrograms)?
Its value is 31,818 CPM.

And the “Average percent inhibition” value ([2]; 50 micrograms)?
The value was 92.9%.

What about the CPM ([2]; 50 micrograms) of the same compound?
Its CPM is 33,948 CPM and 29,688 CPM.

What about the “Average CPM” value ([2]; 100 micrograms) of the same compound?
Its value is 31,347 CPM.

What about the “Average percent inhibition” value ([2]; 100 micrograms) of the same compound?
Its value is 93.0%.

What about the CPM ([2]; 100 micrograms) of the same compound?
Its CPM is 28,946 CPM and 33,748 CPM.

What about the EC50 (retroviruses (virions)) of the same compound?
The EC50 was 60 nM.

And the EC50 [3]?
The EC50 was 200 nM.

And the EC50 (Friend Leukemia Virus [4])?
Its EC50 is 120 nM.

What about the “antiviral activity vs frequency of treatment” value ([5]; 10 micrograms every day for ten days) of the same compound?
Its value is “less effective than even a single 10-microgram dose”.

What about the “antiviral activity vs frequency of treatment” value ([5]; 10 micrograms once a week) of the same compound?
The value was “as effective as the single 10-microgram dose”.

And the “antiviral activity vs dose” value ([5]; single dose of ten micrograms per mouse)?
The value was “less effective than a single dose of 100 micrograms per mouse”.

What about the “activity across assays” value (retroviruses) of the same compound?
Its value is “high degree of activity in a more than one assay”.
